Source: PMC6897379 (Clinical cancer research : an official journal of the …, 2019)
Like-named read-outs stand apart in the source and are kept apart here.

What was measured:
[1] = tested on: ALL xenografts; conditions: PPTP; cited from earlier work
[2] = tested on: relapsed or refractory solid tumors; conditions: cited from earlier work
[3] = tested on: pediatric solid tumor models; conditions: cited from earlier work
[4] = Phase 2 trial toxicity monitoring; type: in vivo, human
[5] = tested on: p53-wildtype, therapy-refractory NBL cell lines; conditions: cited from earlier work
[6] = Plasma pharmacokinetics in children and adolescents, with UGT1A1 phenotype; type: in vivo, human; conditions: for concentration at 4 day: 80 mg/m^2, Alisertib Cmin Median (range), day 4, I/E, I, P
[7] = tested on: relapsed/refractory solid tumors or acute leukemia; experiment: Phase 2 trial; type: in vivo, human
[8] = cited from earlier work
[9] = tested on: NBL xenografts; conditions: PPTP; cited from earlier work
[10] = Toxicity versus germline AURKA genotype; type: in vivo, human
[11] = tested on: ALL-19 xenograft; experiment: ALL-19 xenograft, comparison of dosing schedules; type: in vivo, NOD/SCID mice
[12] = mice receiving 10 mg/kg; cited from earlier work
[13] = human, in vivo, 1 cycle (21 days)
[14] = Acute Lymphoblastic Leukemia, 10 response evaluable
[15] = Ewing Sarcoma, 10 response evaluable
[16] = Germ Cell Tumor, 7 response evaluable
[17] = Hepatoblastoma, 8 response evaluable
[18] = Neuroblastoma (MIBG Evaluable), 24 response evaluable
[19] = Neuroblastoma (Measurable), 24 response evaluable
[20] = Non-Rhabdo Soft Tissue Sarcoma, 10 response evaluable
[21] = Osteosarcoma, 10 response evaluable
[22] = Rhabdoid Tumors, 4 response evaluable
[23] = Rhabdomyosarcoma, 10 response evaluable
[24] = Total, all strata, 137 response evaluable
[25] = Wilms tumor, 10 response evaluable
[26] = adults, 50 mg enteric coated tablets
[27] = population PK model, 363 adults, 7 single agent trials
[28] = Schedule A, twice daily × 7 days
[29] = Schedule B, twice daily × 5 days × 3 weeks

For `COc1cc(Nc2ncc3c(n2)-c2ccc(Cl)cc2C(c2c(F)cccc2OC)=NC3)ccc1C(=O)O` [alisertib, Alisertib], the “Xenografts with maintained complete responses” value [1] is listed as 6 out of 6, the “Duration of stable disease” value ([2]; 8 children, phase 1 trial) is listed as 5–35 cycles and the “Children with stable disease” value ([2]; NBL (n=4) and sarcoma (n=4), of 33 response evaluable children) is listed as 8. For the same compound, the “Recommended phase 2 dose” value ([2]; children and adolescents, orally, once daily for 7 days) was 80 mg/m^2, the “Children with a PR” value ([2]; hepatoblastoma, of 33 response evaluable children) was “one” and the Event free survival ([3]; Wilms tumor, rhabdomyosarcoma and osteosarcoma xenograft models) was “Statistically significant improvement”. The “Solid tumor models with objective responses” value ([3]; pediatric xenograft models) was 80%, the “Dehydration Grade 3” value ([4]; alisertib related, all cycles (n=500)) was 6 (1.2%) n (%) and the “Patients with fatal adverse events possibly related to alisertib” value ([4]; during cycle 1) was “two”. For the same compound, the “ALT increased Grade 3” value ([4]; human, in vivo) was 17 (3.4%) n (%), the “AST increased Grade 3” value ([4]; human, in vivo) was 10 (2%) n (%) and the “Alisertib-related grade 3 or 4 anemia” value ([4]; human, in vivo) was 13.6%. The “Alisertib-related grade 3 or 4 leukopenia” value ([4]; human, in vivo) was 33%, the “Alisertib-related grade 3 or 4 lymphopenia” value ([4]; human, in vivo) was 12.2% and the “Alisertib-related grade 3 or 4 neutropenia” value ([4]; human, in vivo) was 51.8%. The “Alisertib-related grade 3 or 4 thrombocytopenia” value ([4]; human, in vivo) was 20.8%, the “Anemia Grade 3” value ([4]; human, in vivo) was 63 (12.6%) n (%) and the “Anemia Grade 4” value ([4]; human, in vivo) was 5 (1%) n (%). The “Anorexia Grade 3” value ([4]; human, in vivo) was 1 (0.2%) n (%), the “Depression Grade 4” value ([4]; human, in vivo) was 1 (0.2%) n (%) and the “Diarrhea Grade 3” value ([4]; human, in vivo) was 2 (0.4%) n (%). For the same compound, the “Dizziness Grade 3” value ([4]; human, in vivo) was 14 (2.8%) n (%), the “Enterocolitis Grade 3” value ([4]; human, in vivo) was 1 (0.2%) n (%) and the “Febrile neutropenia Grade 3” value ([4]; human, in vivo) was 18 (3.6%) n (%). The “GGT increased Grade 3” value ([4]; human, in vivo) was 1 (0.2%) n (%), the “Hepatic hemorrhage Grade 5” value ([4]; human, in vivo) was 1 (0.2%) n (%) and the “Hyperbilirubinemia Grade 3” value ([4]; human, in vivo) was 3 (0.6%) n (%). The “Hypersomnia Grade 3” value ([4]; human, in vivo) was 1 (0.2%) n (%), the “Hyperuricemia Grade 4” value ([4]; human, in vivo) was 1 (0.2%) n (%) and the “Hypoalbuminemia Grade 3” value ([4]; human, in vivo) was 1 (0.2%) n (%). For the same compound, the “Hypocalcemia Grade 3” value ([4]; human, in vivo) was 1 (0.2%) n (%), the “Hypokalemia Grade 3” value ([4]; human, in vivo) was 4 (0.8%) n (%) and the “Hypokalemia Grade 4” value ([4]; human, in vivo) was 1 (0.2%) n (%). For the same compound, the “Hyponatremia Grade 3” value ([4]; human, in vivo) was 3 (0.6%) n (%), the “Hypophosphatemia Grade 3” value ([4]; human, in vivo) was 1 (0.2%) n (%) and the “INR increased Grade 3” value ([4]; human, in vivo) was 1 (0.2%) n (%). For the same compound, the “Infection Grade 3” value ([4]; human, in vivo) was 1 (0.2%) n (%), the “Leukopenia Grade 3” value ([4]; human, in vivo) was 117 (23.4%) n (%) and the “Leukopenia Grade 4” value ([4]; human, in vivo) was 48 (9.6%) n (%). The “Lymphopenia Grade 3” value ([4]; human, in vivo) was 47 (9.4%) n (%), the “Lymphopenia Grade 4” value ([4]; human, in vivo) was 14 (2.8%) n (%) and the “Nausea Grade 3” value ([4]; human, in vivo) was 2 (0.4%) n (%). The “Neutropenia Grade 3” value ([4]; human, in vivo) was 124 (24.8%) n (%), the “Neutropenia Grade 4” value ([4]; human, in vivo) was 137 (27.4%) n (%) and the “Oral mucositis Grade 3” value ([4]; human, in vivo) was 19 (3.8%) n (%). For the same compound, the “Palmar-plantar erythrodysesthesia Grade 3” value ([4]; human, in vivo) was 2 (0.4%) n (%), the “Photophobia Grade 3” value ([4]; human, in vivo) was 1 (0.2%) n (%) and the “Pneumonia Grade 3” value ([4]; human, in vivo) was 1 (0.2%) n (%). The “Respiratory failure Grade 5” value ([4]; human, in vivo) was 1 (0.2%) n (%), the “Serum amylase increased Grade 3” value ([4]; human, in vivo) was 1 (0.2%) n (%) and the “Thrombocytopenia Grade 3” value ([4]; human, in vivo) was 54 (10.8%) n (%). The “Thrombocytopenia Grade 4” value ([4]; human, in vivo) was 50 (10%) n (%), the “Tumor lysis syndrome Grade 4” value ([4]; human, in vivo) was 1 (0.2%) n (%) and the “Urinary tract infection Grade 3” value ([4]; human, in vivo) was 1 (0.2%) n (%). For the same compound, the “Vomiting Grade 3” value ([4]; human, in vivo) was 2 (0.4%) n (%), the “Patients who experienced dose limiting toxicity” value [4, 13] was 18 patients and the “Patients who experienced dose limiting toxicity, percent” value [4, 13] was 13%. The “Oral pain Grade 3” value ([4]; human, in vivo, po) was 5 (1%) n (%), the Most frequent toxicity ([4]; in vivo) was “myelosuppression” and the “Activity in cell lines” value [5] was “active”. For the same compound, the “Patients exceeding the 1 μM target trough concentration on day 4” value ([6]; 26/39 patients) was 67%, the “Difference in population mean trough concentrations” value ([6]; IM/PM versus EM, p 0.0091) was 1.05 µM and the “Patients with Cmin exceeding 1μM on day 7” value ([6]; human, in vivo, 7 day) was 41%. For the same compound, the concentration at 4 day ([6]; human, plasma, oral, Grade ≥ 2: Yes (n=8)) was 1800 nM, the concentration at 4 day ([6]; human, plasma, oral, Grade ≥ 2, No (n=8)) was 2220 nM and the concentration at 7 day ([6]; human, plasma, oral, 80 mg/m^2, Median Cmin on day 7, cycle 1) was 900 nM. For the same compound, the “Difference in population mean trough concentrations” value ([6]; with versus without ≥ grade 2 toxicities, not statistically significant) was 0.08 µM, the Non-responders [7, 14] was 1 and the “Progressive Disease” value [7, 14] was 6. For the same compound, the “Stable Disease n patients” value [7, 14] was 3 n patients, the Non-responders ([7]; Acute Myeloid Leukemia, 10 response evaluable) was 10 and the Non-responders [7, 15] was 2. For the same compound, the “Progressive Disease” value [7, 15] was 5, the “Stable Disease n patients” value [7, 15] was 3 n patients and the Non-responders [7, 16] was 1. For the same compound, the “Progressive Disease” value [7, 16] was 4, the “Stable Disease n patients” value [7, 16] was 2 n patients and the “Stable Disease cycles administered” value ([7]; Hepatoblastoma) was 5 cycles. For the same compound, the Non-responders [7, 17] was 2, the “Progressive Disease” value [7, 17] was 4 and the “Stable Disease n patients” value [7, 17] was 1 n patients. For the same compound, the “Stable Disease median (range) cycles administered” value ([7]; Neuroblastoma (MIBG Evaluable)) was 13 (5–35) cycles, the Non-responders [7, 18] was 4 and the “Progressive Disease” value [7, 18] was 9. For the same compound, the “Stable Disease n patients” value [7, 18] was 9 n patients, the Non-responders [7, 19] was 5 and the “Progressive Disease” value [7, 19] was 16. The “Stable Disease n patients” value [7, 19] was 2 n patients, the “Stable Disease cycles administered” value ([7]; Non-Rhabdo Soft Tissue Sarcoma) was 5 cycles and the Non-responders [7, 20] was 2. The “Progressive Disease” value [7, 20] was 7, the “Stable Disease n patients” value [7, 20] was 1 n patients and the “Responses in the other primary disease strata” value ([7]; OS, EWS, RMS, ALL, AML) was “No responses”. For the same compound, the Non-responders [7, 21] was 2, the “Progressive Disease” value [7, 21] was 8 and the Non-responders [7, 22] was 1. The “Progressive Disease” value [7, 22] was 3, the “Stable Disease cycles administered” value ([7]; Rhabdomyosarcoma) was 15 cycles and the Non-responders [7, 23] was 2. The “Progressive Disease” value [7, 23] was 7, the “Stable Disease n patients” value [7, 23] was 1 n patients and the Non-responders [7, 24] was 33. The “Progressive Disease” value [7, 24] was 76, the “Stable Disease n patients” value [7, 24] was 23 n patients and the “Stable Disease cycles administered” value ([7]; Wilms tumor) was 31 cycles. The Non-responders [7, 25] was 1, the “Progressive Disease” value [7, 25] was 7 and the “Stable Disease n patients” value [7, 25] was 1 n patients. The Objective responses observed ([7]; all strata, 137 evaluable for response) was “Five”, the Objective response rate ([7]; children and adolescents receiving single agent alisertib) was “less than 5%” and the “Area under concentration time curve (AUC)” value [8, 26] was 20.9 µM·h. For the same compound, the “Steady state trough concentration (Cmin)” value [8, 26] was “exceeding 1 μM”, the “AUC0–24 h” value ([8]; patients receiving 50 mg BID) was 40 µM·h and the Cmax ([8]; patients receiving 50 mg BID) was 1300 nM. For the same compound, the “Apparent clearance (CL/F)” value [8, 27] was 4.25 L/h, the Terminal half-life [8, 27] was 19.3 h and the Average trough concentrations ([8]; recommended phase 2 dose of 50 mg BID for 7 days) was “exceeded 1 μM”. The “Xenografts with maintained complete responses” value [9] was 3 of 7, the “Cycle 1 DLT No” value ([10]; AURKA 91 A>T VV) was 8 and the “Grade 2+ Toxicity Yes” value ([10]; AURKA 91 A>T VV) was 8. For the same compound, the “Cycle 1 DLT Yes” value ([10]; AURKA 91 A>T WV) was 5, the “Grade 2+ Toxicity No” value ([10]; AURKA 91 A>T WV) was 5 and the “Cycle 1 DLT Yes” value ([10]; AURKA 91 A>T WW) was 8. The “Grade 2+ Toxicity No” value ([10]; AURKA 91 A>T WW) was 9, the “Cycle 1 DLT No” value ([10]; AURKA 169G>A VV) was 2 and the “Grade 2+ Toxicity No” value ([10]; AURKA 169G>A VV) was 1. For the same compound, the “Grade 2+ Toxicity Yes” value ([10]; AURKA 169G>A VV) was 1, the “Cycle 1 DLT No” value ([10]; AURKA 169G>A WV) was 18 and the “Cycle 1 DLT Yes” value ([10]; AURKA 169G>A WV) was 3. For the same compound, the “Grade 2+ Toxicity No” value ([10]; AURKA 169G>A WV) was 4, the “Cycle 1 DLT Yes” value ([10]; AURKA 169G>A WW) was 10 and the “Grade 2+ Toxicity No” value ([10]; AURKA 169G>A WW) was 9. The “Grade 2+ Toxicity Yes” value ([10]; AURKA 169G>A WW) was 54, the “Cycle 1 DLT No” value ([10]; AURKA Haplotype H1) was 25 and the “Cycle 1 DLT Yes” value ([10]; AURKA Haplotype H1) was 5. The “Grade 2+ Toxicity No” value ([10]; AURKA Haplotype H1) was 4, the “Cycle 1 DLT Yes” value ([10]; AURKA Haplotype H2) was 8 and the “Grade 2+ Toxicity No” value ([10]; AURKA Haplotype H2) was 10. The “Cycle 1 DLT Yes” value ([10]; Total genotyped patients) was 13, the “Grade 2+ Toxicity No” value ([10]; Total genotyped patients) was 14 and the “Median EFS Treated” value ([11]; Schedule A, 10.4 mg/kg oral gavage twice daily × 7 days) was 13.6 days. The “Leukemia progression compared with controls” value ([11]; Schedule A, serial peripheral blood parameters) was “not significantly different from that of controls”, the “EFS T-C” value [11, 28] was 7.0 days and the “EFS T/C” value [11, 28] was 2.0. For the same compound, the “Median Response Score” value [11, 28] was “PD2”, the “Median EFS Treated” value ([11]; Schedule B, 10.4 mg/kg oral gavage twice daily × 5 days × 3 weeks) was 31.2 days and the “EFS T-C” value [11, 29] was 24.6 days. The “EFS T/C” value [11, 29] was 4.7, the 12 h level [12] was 1.2 µM and the “AUC0–24 h” value [12] was 39 µM·h. For the same compound, the Cmax [12] was 16000 nM.
